In patent US9796730B2, “Halogenated benzoxazines and their use” (priority 2012, dated 2017):

Assays:
Aβ plaques [1] = test: Detection of Aβ plaques by means of optical imaging (OI) in the mouse model; format: in vivo, transgenic APPPS1 mice and non-transgenic control mice
Experimental: Detection of Aβ Plaques by Means of Optical Imaging (OI) in the Mouse Model
The compound was formulated in physiological saline solution (0.9% NaCl) in a concentration of 0.05 mg/ml and intravenously injected into the mice. In the following the mice were examined by means of OI (Aequoria Hamamatsu Optical Imaging System), the signal was detected at 650 nm.
It is clear for the skilled person that this labeling can—depending on the kind of labeling—be realized by any method, such as OI, PET (e.g. with ^76Br, ^75Br or ^18F labeled compounds) or MRT (e.g. with ^19F labeled compounds).
The signal strength was quantified as a relative fluorescence signal, whereby 30 min after the injection was chosen as the reference point in time. The signal strength was calculated by percentage after the subtraction of the auto fluorescence (resulting in relative intensity values, Irel) and then the percentage difference between the transgenic and control mice—in the following referred to as specific binding (Bsp)—was calculated and plotted against the age of the transgenic mice (see FIG. 3). It turned out that there is a significant correlation between the age and the development of the Alzheimer's disease and the signal strength, where it was especially noted that the compound according to the invention has no saturation or ceiling effects in a way that the signal strength is not increasing at a specific concentration of Aβ plaques. To the contrary, at the age of 21 months for the transgenic mice a particularly strong signal has been measured.

[2] = Storage stability of the isolated title compound; format: physicochemical; settings: within 12 hours at −25° C.
Experimental: The title compound is instable and decomposes within 12 hours to 50% at −25° C. For this reason the title compound is further converted directly after the isolation.

Aβ plaques [3] = test: Detection of Aβ plaques by means of MRT and optical fluorescence measurements in the mice model; format: in vivo, transgenic APP23 mice and non-transgenic control mice; settings: age 28 months, 2 mg/kg body weight
From the text: Detection of Aβ Plaques by Means of MRT in the Mice Model
For the MRT measurements a threedimensional gradient echosequence (gre3D) which both comprises T1 as well as T2* parts, and a quantitative T2 value determination sequence (T2map) were used.
The observations made in vivo could also be confirmed ex vivo after a preparation of the brains.

Compound: CCN1CCOc2cc3c(cc21)Oc1cc2c(cc1=N3)OCC[N+]=2CC[18F] [Example 3, [F-18]-8-Ethyl-4-(2-Fluoroethyl)-3,8,9,10-tetrahydro-2H-bis([1,4]-oxazino)[2,3-b:3′,2′-i]phenoxazin-4-ium chloride]
- binding to Aβ plaques (summary of OI examinations) (Aβ plaques [1]; in vivo, OI): selectively binds to Aβ plaques
- accumulation in control mice (OI signal) (Aβ plaques [1]; non-transgenic control mice, 0.1 mg/kg body weight i.v., signal at 650 nm, FIG. 1): no accumulation could be detected
- accumulation in transgenic mice (OI signal) (Aβ plaques [1]; transgenic APPPS1 mice, 0.1 mg/kg body weight i.v., signal at 650 nm, FIG. 1 (age 12 months, 120 min after injection)): specifically accumulates in transgenic mice
- enrichment as a function of the age of the transgenic mice (Aβ plaques [1]; transgenic APPPS1 mice, 0.1 mg/kg i.v., OI): increases with the age of the transgenic mice
- enrichment in transgenic mice of an age of 2 months (Aβ plaques [1]; transgenic APPPS1 mice, age 2 months, 0.1 mg/kg i.v., OI, FIG. 2): no enrichment can be detected
- enrichment in transgenic mice at the age of 12 months (Aβ plaques [1]; transgenic APPPS1 mice, age 12 months, 0.1 mg/kg i.v., OI, FIG. 2): a significant enrichment can be seen

Compound: Oc1ccc2c(c1)N(CCBr)CCO2 [Example 13A, 4-(2-Bromoethyl)-3,4-dihydro-2H-benzo[b][1,4]oxazin-6-ol]
- decomposition on storage [2]: 50%

Compound: CCN1CCOc2cc3c(cc21)Oc1cc2c(cc1=N3)OCC[N+]=2CC[19F] [Example 1, 8-Ethyl-4-(2-fluoroethyl)-3,8,9,10-tetrahydro-2H-bis([1,4]oxazino)[2,3-b:3′,2′-i]phenoxazin-4-ium chloride]
- enrichment in control mice (MRT and fluorescence) (Aβ plaques [3]; non-transgenic control mice): neither for the MRT measurements nor the fluorescence measurements a specific enrichment
- enrichment in transgenic mice (MRT and fluorescence) (Aβ plaques [3]; transgenic APP23 mice, measurement period 90 minutes): a specific enrichment in the transgenic mice could be detected
